Experiments:
Test in all cases: relative viability (nuclei count vs DMSO), 5 days (fraction); higher = more cells survive
[1] = compound: Cc1cc(Nc2cc(N3CCN(C)CC3)nc(Sc3ccc(NC(=O)C4CC4)cc3)n2)n[nH]1 [Tozasertib] + CCNC(=O)c1noc(-c2cc(C(C)C)c(O)cc2O)c1-c1ccc(CN2CCOCC2)cc1 [Luminespib] (partner 0.01 µM)
In short: (§1)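 For relative viability, nuclei counts in treated wells were divided by those in vehicle wells. Lung cancer cell lines had been pin-tool dosed in 1536-well plates the day after seeding and cultured for 5 days, then fixed and stained in one step (final 0.05% Triton X-100, 1% formaldehyde, 1 ug/ml Hoechst) and imaged at 4×. Doses were one drug alone or a fixed anchor-drug dose plus five library-drug doses (not always all listed) in √10 steps, and values are duplicate-plate medians.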

[2] = compound: Cc1cc(Nc2cc(N3CCN(C)CC3)nc(Sc3ccc(NC(=O)C4CC4)cc3)n2)n[nH]1 [Tozasertib] + COc1cccc2cc(-c3nc([C@H]4CC[C@H](C(=O)O)CC4)n4ncnc(N)c34)[nH]c12 [OSI-027] (partner 0.5 µM)
In short: as §1

[3] = compound: Cc1cc(Nc2cc(N3CCN(C)CC3)nc(Sc3ccc(NC(=O)C4CC4)cc3)n2)n[nH]1 [Tozasertib] + CC(=O)Nc1cccc(-n2c(=O)n(C3CC3)c(=O)c3c(Nc4ccc(I)cc4F)n(C)c(=O)c(C)c32)c1 [Trametinib] (partner 0.02 µM)
In short: as §1

[4] = compound: Cc1cc(Nc2cc(N3CCN(C)CC3)nc(Sc3ccc(NC(=O)C4CC4)cc3)n2)n[nH]1 [Tozasertib] + CC(=O)c1c(C)c2cnc(Nc3ccc(N4CCNCC4)cn3)nc2n(C2CCCC2)c1=O [Palbociclib] (partner 0.5 µM)
In short: as §1

Cell Line | relative viability ([1]; first compound 0.004 µM) | relative viability ([1]; first compound 0.01265 µM) | relative viability ([1]; first compound 0.04 µM) | relative viability ([1]; first compound 0.1265 µM) | relative viability ([2]; first compound 0.004 µM) | relative viability ([2]; first compound 0.01265 µM) | relative viability ([2]; first compound 0.04 µM) | relative viability ([2]; first compound 0.1265 µM) | relative viability ([3]; first compound 0.004 µM) | relative viability ([3]; first compound 0.01265 µM) | relative viability ([3]; first compound 0.04 µM) | relative viability ([3]; first compound 0.1265 µM) | relative viability ([4]; first compound 0.004 µM) | relative viability ([4]; first compound 0.01265 µM) | relative viability ([4]; first compound 0.04 µM) | relative viability ([4]; first compound 0.1265 µM)
NCI-H520 | 0.193 | 0.219 | 0.219 | 0.233 | 0.356 | 0.26 | 0.254 | 0.234 | 0.673 | 0.645 | 0.765 | 0.243 | 0.231 | 0.228 | 0.231 | 0.173
NCI-H522 | 1.36 | 1.48 | 1 | 0.896 | 0.773 | 0.838 | 0.783 | 0.628 | 0.825 | – | 0.671 | 0.711 | 1.03 | 1.02 | 1.06 | 0.749
NCI-H596 | 0.957 | 0.96 | 1.09 | 0.901 | 0.785 | 0.628 | 0.797 | 0.771 | 0.992 | 0.877 | 0.826 | 0.622 | – | – | – | –
NCI-H647 | 0.24 | 0.152 | 0.186 | 0.194 | 0.836 | 0.763 | 0.763 | 0.33 | 0.459 | 0.374 | 0.524 | 0.32 | 0.457 | 0.398 | 0.425 | 0.299
NCI-H650 | 0.901 | 0.845 | 0.678 | 0.646 | 0.549 | 0.512 | 0.535 | 0.452 | 1.06 | 0.918 | 0.894 | 0.823 | 0.362 | 0.288 | 0.317 | 0.313
